“Also recorded” adds a separate entry of the source.

The test system of assay [1] is spleen cells of HLA-A11 transgenic mice immunized with MAGE-A9 full length recombinant protein. Briefly: IFN-γ ELISPOT, MAGE-A9 immunogenic HLA-A3/A11 peptides. It is filed as cell-based. The text has this: FIGS. 23A and 23B depict IFN-γ ELISPOT results of the experiment for the MAGE-A9 immunogenic HLA-A3/A11 peptides. IFN-γ response induced by HLA-A3 candidate peptides of MAGE-A9 as detected by IFN-γ ELISPOT assay. Two group of 3 and 10 HLA-A11 transgenic mice were immunized respectively with DPX-Empty alone (as control; bar on the left) and with MAGE-A9 full-length recombinant protein admixed with poly(I:C) (bar on the right). Mice were sacrificed 36 days after 1st immunization and spleen cells were tested in IFN-γ ELISPOT after stimulation with dendritic cells loaded with the individual candidate or control peptides (FIG. 23A) or after direct stimulation with the individual candidate or control peptides (FIG. 23B). DCE: Dendritic cell empty; NS: Non stimulated; A3-Ctrl; irrelevant control HLA-A3 peptide.
(§1) IFN-γ ELISPOTs was performed to measure antigen-specific T-cell activation upon stimulation with peptides containing the putative epitopes. […]
(§2) Groups of ten 6-12 weeks-old HLA-A1, HLA-A2/DR1, HLA-A24, HLA-All (as a surrogate for HLA-A3 allele) and HLA-B7 male/female mice were immunized three times s.c. and i.p., 14 days apart, with 30 μg of MAGE-A9 his-tag full-length recombinant protein admixed with 50 μg (s.c.) or 200 μg (i.p.) of Poly(I:C) in a final volume of 100 μl. On day 34, mice were sacrificed. Splenocytes were isolated from spleens and treated with ACK lysis buffer to lyse contaminating erythrocytes. Splenocytes were stimulated with the candidate peptides alone or with dendritic cells loaded with the candidate peptides. The immune response was measured using IFN-γ ELISPOT assays (BD). Then spots were counted using an ELISPOT counter (CTL Analyzer) and enumerated as number of spot-forming units (SFU) per well. Each experiment was repeated two or three times (except for the experiment with HLA-A11 (as a surrogate for HLA-A3 allele) mice which was done only once).
(§3) Student's t-tests were performed to compare two groups (non-stimulated versus stimulated with test peptide). […]

In assay [2] the test system is spleen cells of HLA-A24 transgenic mice immunized with MAGE-A9 full length recombinant protein. The assay is described as follows: IFN-γ ELISPOT, MAGE-A9 immunogenic HLA-A24 peptides. It is filed as cell-based. The conditions noted are these: three experiments. The protocol:
FIGS. 16A and 16B depict IFN-γ ELISPOT results of 1st experiment for the MAGE-A9 immunogenic HLA-A24 peptides. IFN-γ response induced against HLA-A24 candidate peptides of MAGE-A9 as detected by IFN-γ ELISPOT assay. Two group of 3 and 5 mice were immunized respectively with poly(I:C) alone (as control; bar on the left) and with MAGE-A9 full-length recombinant protein admixed with poly(I:C) (bar on the right). Mice were sacrificed 34 days after 1st immunization and spleen cells were tested in IFN-γ ELISPOT after stimulation with dendritic cells loaded with the individual candidate or control peptides (FIG. 16A) or after direct stimulation with the individual candidate or control peptides (FIG. 16B). DCE: Dendritic cell empty; NS: Non stimulated; A24-Ctrl; irrelevant control HLA-A24 peptide. Student T-test *p<0.05; ** p<0.005; *** p<0.0005; **** p<0.00005.
as §1, §2, §3

Assay [3] relates to spleen cells of HLA-A1 transgenic mice immunized with MAGE-A9 full length recombinant protein. The assay is described as follows: IFN-γ ELISPOT, MAGE-A9 immunogenic HLA-A1 peptides. It is filed as cell-based. As to the method:
FIGS. 14A and 14B depict IFN-γ ELISPOT results of 1st experiment for the MAGE-A9 immunogenic HLA-A1 peptides. IFN-γ response induced by HLA-A1 candidate peptides of MAGE-A9 as detected by IFN-γ ELISPOT assay. Two groups of 3 and 5 mice were immunized respectively with poly(I:C) alone (as control; bar on the left) and with MAGE-A9 full-length recombinant protein admixed with poly(I:C) (bar on the right). Mice were sacrificed 34 days after 1st immunization and spleen cells were tested in IFN-γ ELISPOT after stimulation with dendritic cells loaded with the individual candidate or control peptides (FIG. 14A) or after direct stimulation with the individual candidate or control peptides (FIG. 14B). DCE: Dendritic cell empty; NS: Non stimulated; Ctrl HLA-A1; irrelevant control HLA-A1 peptide. Student T-test *p<0.05; ** p<0.005; *** p<0.0005; **** p<0.00005. […]
Groups of ten 6-12 weeks-old HLA-A1, HLA-A2/DR1, HLA-A24, HLA-All (as a surrogate for HLA-A3 allele) and HLA-B7 male/female mice were immunized three times s.c. and i.p., 14 days apart, with 30 μg of MAGE-A9 his-tag full-length recombinant protein admixed with 50 μg (s.c.) or 200 μg (i.p.) of Poly(I:C) in a final volume of 100 μl. […] The immune response was measured using IFN-γ ELISPOT assays (BD). Then spots were counted using an ELISPOT counter (CTL Analyzer) and enumerated as number of spot-forming units (SFU) per well. […]

Assay [4] has as its system peptide-loaded RMA-S HHD cells. The assay is described as follows: Chromium 51 release assay (CTL assay). It is filed as cell-based, mice. The conditions noted are these: for CTL response (51Cr-release): effector:target 75:1, 50:1, 25:1, mice immunized with recombinant MAGE-A9 and poly(I:C).
The target in assay [5] is MHC class 1 allele A*02:01 (Homo sapiens, UniProt P04439, D140Y/D185E/D98H/E176V/E277Q/G131W/G231S/I119V/I121R/I166T/I218V/L300P/L318F/N151K/N90K/P208A/P217A/Q86G/Q94H/R138H/R169H/T345S). Briefly: REVEAL binding of HLA-A2 binding peptides. The note with it: for binding to MHC class 1 allele A*02:01 (in words): Higher REVEAL score.
Assay [6] has as its system spleen cells of HLA-A2/DR1 transgenic mice immunized with MAGE-A9 full length recombinant protein. The assay is described as follows: IFN-γ ELISPOT, MAGE-A9 immunogenic HLA-A2 peptides. It is filed as cell-based. The conditions noted are these: for IFN-γ response (ELISPOT): HLA-A2/DR1 mice, three experiments. As to the method: FIGS. 11A and 11B depict IFN-γ ELISPOT results of 1st experiment for the MAGE-A9 immunogenic HLA-A2 peptides. Induction of IFN-γ response induced against HLA-A2 peptides of MAGE-A9 as detected by IFN-γ ELISPOT assay. A group of 10 mice was immunized with MAGE-A9 full length recombinant protein admixed with poly(I:C). Mice were sacrificed 34 days after 1st immunization and spleen cells were tested in IFN-γ ELISPOT after stimulation with dendritic cells loaded with the individual candidate or control peptides (FIG. 11A) or after direct stimulation with the individual candidate or control peptides (FIG. 11B). DCE: Dendritic cell empty; NS: Non stimulated; INF, gp100 and EBV: irrelevant HLA-A2 control peptides. Student T-test *p<0.05; ** p<0.005; *** p<0.0005; **** p<0.00005.
as §1, §2
Student's t-tests were performed to compare two groups (non-stimulated versus stimulated with test peptide). To indicate significance, p-values are represented in the figures by * p<0.05, ** p<0.01, *** p<0.001, and **** p=0.0001. All data are presented as means with standard error of the mean (SEM).
The experiment was repeated three times for a total number of 30 mice (FIGS. 11, 12, and 13). The immune response for peptides 111, 24, 223 and 270 via Chromium 51 (^51Cr) release assays (CTL assays) is also presented in Example 6. […] These tests offer a very high sensitivity, which explains why the INF-Y response for these peptides appears to be weaker, although the peptides are responsive in other assays (see Examples 6).

The target in a further assay is T1, HLA-A2 (Homo sapiens, UniProt P04439, D140Y/D185E/D98H/E176V/E277Q/G131W/G231S/I119V/I121R/I166T/I218V/L300P/N151K/N90K/P208A/P217A/Q86G/Q94H/R138H/R169H).
T1 construct: purchased Biolegend, USA
Briefly: Flex-T in vitro HLA binding assay (HLA class I ELISA). The note with it: Flex-T monomer peptide exchange, β2-microglobulin ELISA. As to the method:
Internal in vitro assay that assesses the binding of each of the peptides to HLA-A2 as a part of the potency assay development was performed using the Flex-T in vitro binding assay.
Flex-T technology (Biolegend, USA) offers the opportunity to quantitatively measure the binding affinity of peptides to their respective MHC Class I receptors (In this case HLA-A2). Flex-T was made of MHC monomers loaded with a peptide that can be degraded using a UV light source. This allowed for a peptide exchange when the UV irradiation was done in the presence of the peptide of interest which is not UV-labile.
The binding of the peptide of interest to the Flex-T monomer was quantified using an HLA class I ELISA method based on the detection of β2-microglobulin subunit of HLA class I complexes, after capturing the complex through the conjugated biotin. To this end, biotinylated HLA class I monomer-peptide complex was first captured in streptavidin coated microtiter wells. Subsequently, lRP-conjugated anti-human 02-microglobulin was added to detect intact HLA class I complexes. Only intact HLA class I complexes were recognized.
The relative potency was then calculated compared to a reference lot using parallel line analysis as per USP <1034>.
In general terms: In an ELISA, binding on a coated surface is turned into a signal by an enzyme label.

Regarding “FLLHKYRVK [peptide 118, MAGE-A9 peptide antigen]”, the “IFN-γ response (ELISPOT)” value in assay [1] (only with peptide-loaded DC) was “good reactivity”.

Turning to VYYTLWSQF [compound 71], in assay [2], the “IFN-γ response (ELISPOT)” value was “interesting”.

With SYILVTALG [compound 174], the “IFN-γ response (ELISPOT)” value in assay [2] was “interesting; also recorded: good immune responses”.

Take EVDPAGHSY [peptide 167]: the “IFN-γ response (ELISPOT)” value in assay [3] (HLA-A1 mice, two experiments) is listed as “very strong; also recorded: highly immunogenic”.

As for NYKRYFPVI [peptide 141], in assay [2], the “IFN-γ response (ELISPOT)” value is “interesting; also recorded: highest responder; also recorded: good immune responses; also recorded: stronger and more consistent results”.

For “IVLGVILTK [peptide 203, MAGE-A9 peptide antigen]”, the “IFN-γ response (ELISPOT)” value in assay [1] (restimulated with peptide alone) is “weak but significant reactivity”.

Take “GLMGAQEPT [MAGE-A9 24, MAGE-A9 peptide antigen]”: the “CTL response (51Cr-release)” value in assay [4] is “elicited a response”.

Regarding “FLWGSKAHA [MAGE-A9 270, MAGE-A9 peptide antigen]”, in assay [5], the “binding to MHC class 1 allele A*02:01 (in words)” value (shortened to “binding … (in words)”) is listed as “high binding”. Also, the “CTL response (51Cr-release)” value in assay [4] was “elicited a response”.

Turning to “ALLIIVLGV [compound 199, MAGE-A9 peptide antigen]”, the “IFN-γ response (ELISPOT)” value in assay [6] was “highest”.

Regarding “STFKNWPFL [SurA24, survivin peptide antigen HLA-A24]”, the “binding … (in words)” value in assay [5] is reported as “high binding”. For the same sequence, in assay [5] (MHC class 1 allele A*02:01), the Kinetic score stood at 0.00, the “On-rate T1/2” value is 31.52 h and the R-score was found to be 0.00. The “Off-rate T1/2” value in assay [5] (MHC class 1 allele A*02:01, * = no significant, stable complex at end of measurement period) is 7.2 min. Besides, the REVEAL score in assay [5] (MHC class 1 allele A*02:01, Positive Control 100) is 61.93.

For “SVMGVYVGK [peptide 225, MAGE-A9 peptide antigen]”, the “IFN-γ response (ELISPOT)” value in assay [1] (HLA-A11 mice, peptide-loaded DC or peptides alone) was “very strong; also recorded: very immunogenic”.

“LMLGEFLKL [SurA2.M, survivin peptide antigen HLA-A2]”: the “binding … (in words)” value in assay [5] is “high binding”. For the same sequence, the HLA-A2 binding entry in the assay with HLA-A2 is “high affinity binding”.

On to KVAELVHFL [MAGE-A9 111], for which, in assay [5], the “binding affinity compared to M9-A2-270” value is “lower binding affinity” and the “binding … (in words)” value is given as “high binding”. For the same sequence, the HLA-A2 binding entry with HLA-A2 is recorded as “high affinity binding”. Also, the “IFN-γ response (ELISPOT)” value in assay [6] was “consistently higher”. Further, in assay [3] (first experiment, peptide-loaded DC (FIG. 14A), not observed in the 2nd experiment), the “IFN-γ response (ELISPOT)” value is on record as “moderate response”. Also, in assay [4], the “specific lysis compared to M9-A2-270” value is on record as “higher specific lysis” and the “CTL response (51Cr-release)” value was “elicited a response”.

Regarding “FMFQEALKL [peptide 102, MAGE-A9 peptide antigen]”, the “IFN-γ response (ELISPOT)” value in assay [6] is given as “highest; also recorded: consistently observed”. Further, the “IFN-γ response (ELISPOT), significance” value in assay [6] (splenocytes stimulated with peptide-loaded DCs) was “statistically significant in two out of three experiments”.

The values above are taken from US20240390468A1, “SURVIVIN AND MAGE-A9 DUAL-TARGETED IMMUNOTHERAPY” (IMMUNOVACCINE TECHNOLOGIES INC., priority 2022, published 2024).
